Measured values published in US12077495B2 (priority 2018, dated 2024).

Experiments:
[1] = target: T1, high-affinity forebrain binding sites (Mus musculus, UniProt P11798); test: Ex vivo 3H-A radioligand binding, autoradiography of mouse brain sections; type: in vivo, mice; settings: 5 MBq per mouse i.p.; 30 min
T1 construct: from tissue; host or cells: C57BL/6J mouse brain (hippocampus, cortex) after i.p. injection of 3H-A
Description: ^3H-A was used to perform ex vivo binding to C57BL/6J mice. Thus, in a design with 5 mice per group, ^3H-A (5 MBq per mouse) was injected i.p. After 30 min, the brains were dissected and autoradiography performed.

CAMK2A = target: T2, CAMK2A (Rattus norvegicus, UniProt P11275); test: biochemical; type: binding; settings: non-specific: 1 mM GHB
T2 construct: host or cells: HEK293T
Description: Cells were transfected with rat CAMK2A (Origene construct RR201121) or rat CAMK2B (Origene construct RR200520) using PolyFect (Qiagen, West Sussex, UK) according to the manufacturer's protocol. Whole cell homogenates were prepared 48 hr post-transfection by washing the cells with ice-cold 1×PBS and harvesting by scraping. Cells were collected and centrifuged for 10 min at 1000×g. Cell pellets were resuspended in ice-cold 1×PBS and homogenized using 2×1 mm zirkonium beads in a bullet blender for 20 s at max speed (NextAdvance, NY, USA). Homogenates were cleared by centrifugation (10 min, 4° C., 14.000×g). Protein concentration was determined using the Bradford protein assay. 150-200 μg protein was incubated with 5 nM ^3H-A and test compound in 1 ml total volume for 1 hr at 0-4° C. […] Proteins were then precipitated by addition of ice-cold acetone (4× of the assay volume), vortexing and incubation at −20° C. for 1 hr. Proteins were filtrated rapidly through GF/C unifilters (Whatman) and washed. The dried filters were added scintillation liquid and radioactivity measured on a Tricarb 2100 Scintillation counter (Packard).
A) Principle of photoaffinity labelling workflow. […] After introduction of biotin through a Staudinger-Bertozzi ligation to EZ-Link™ Phosphine-PEG3-Biotin (ThermoFisher Scientific), the biotin-labelled proteins were affinity-purified and subjected to LC-MS/MS analysis. […] C)^3H-A binding to cortical membranes from CAMK2A and CAMK2B knock-out mouse brains.
Human/rat CAMK2A expressed in HEK cells was assayed in an in-house established ^3H-A filtration binding assay performed on whole cell lysates of CAMK2A-transfected HEK293T cells.

CAMK2B = target: T3, CAMK2B (Rattus norvegicus, UniProt P08413); test: 3H-A binding to recombinant CAMK2B expressed in HEK293T cells; settings: HEK293T whole cell homogenate
T3 construct: host or cells: HEK293T
Description: HEK293T were cultured using standard conditions, using Dulbecco's modified Eagle Medium with GlutaMax, 10% fetal bovine serum and 1% penicillin-streptomycin, and incubated at 37° C. in a humidified atmosphere of […] and 5% CO2. Cells were transfected with rat CAMK2A (Origene construct RR201121) or rat CAMK2B (Origene construct RR200520) using PolyFect (Qiagen, West Sussex, UK) according to the manufacturer's protocol. Whole cell homogenates were prepared 48 hr post-transfection by washing the cells with ice-cold 1×PBS and harvesting by scraping. Cells were collected and centrifuged for 10 min at 1000×g. Cell pellets were resuspended in ice-cold 1×PBS and homogenized using 2×1 mm zirkonium beads in a bullet blender for 20 s at max speed (NextAdvance, NY, USA). Homogenates were cleared by centrifugation (10 min, 4° C., 14.000×g). Protein concentration was determined using the Bradford protein assay. 150-200 μg protein was incubated with 5 nM ^3H-A and test compound in 1 ml total volume for 1 hr at 0-4° C. […] Proteins were then precipitated by addition of ice-cold acetone (4× of the assay volume), vortexing and incubation at −20° C. for 1 hr. Proteins were filtrated rapidly through GF/C unifilters (Whatman) and washed. The dried filters were added scintillation liquid and radioactivity measured on a Tricarb 2100 Scintillation counter (Packard). […]

[2] = peripheral administration; cited from earlier work
rodents = test: Observation of acute toxicity or sedation in rodents; type: in vivo; settings: doses as high as 500 mg/kg

T1 sequence (P11798 whole entry): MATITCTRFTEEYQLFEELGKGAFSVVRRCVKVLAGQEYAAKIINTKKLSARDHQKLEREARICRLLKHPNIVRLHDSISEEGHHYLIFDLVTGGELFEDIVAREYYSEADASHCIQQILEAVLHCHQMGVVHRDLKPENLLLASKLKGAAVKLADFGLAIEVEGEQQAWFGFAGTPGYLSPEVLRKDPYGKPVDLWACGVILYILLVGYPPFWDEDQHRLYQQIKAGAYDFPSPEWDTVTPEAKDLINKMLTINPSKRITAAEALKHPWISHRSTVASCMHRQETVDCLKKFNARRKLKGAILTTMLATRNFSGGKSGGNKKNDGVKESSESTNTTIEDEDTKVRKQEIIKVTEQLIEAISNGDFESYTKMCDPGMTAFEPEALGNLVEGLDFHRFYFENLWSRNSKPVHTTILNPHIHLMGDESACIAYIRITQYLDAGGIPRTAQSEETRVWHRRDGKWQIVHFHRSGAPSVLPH
T2 sequence (P11275 whole entry): as the sequence (P11798 whole entry) above
T3 sequence (P08413 whole entry): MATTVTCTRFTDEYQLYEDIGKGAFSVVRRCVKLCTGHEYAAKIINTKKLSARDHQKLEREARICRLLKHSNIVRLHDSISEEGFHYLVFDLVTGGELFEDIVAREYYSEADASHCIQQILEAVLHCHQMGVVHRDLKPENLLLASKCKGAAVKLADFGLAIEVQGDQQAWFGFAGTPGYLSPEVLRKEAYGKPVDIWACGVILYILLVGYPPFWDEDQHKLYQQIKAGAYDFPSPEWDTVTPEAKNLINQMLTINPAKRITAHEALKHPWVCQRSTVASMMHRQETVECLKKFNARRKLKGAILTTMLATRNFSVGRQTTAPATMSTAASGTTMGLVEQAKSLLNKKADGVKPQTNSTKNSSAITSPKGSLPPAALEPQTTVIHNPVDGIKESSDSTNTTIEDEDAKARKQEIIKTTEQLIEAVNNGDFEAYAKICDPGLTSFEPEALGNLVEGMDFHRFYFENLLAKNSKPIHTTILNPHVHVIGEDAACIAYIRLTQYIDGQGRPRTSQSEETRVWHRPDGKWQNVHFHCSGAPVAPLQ

Compound | ex vivo specific binding in hippocampus and cortex vs cerebellum [1] | specific binding to CAMK2A-transfected HEK293T whole cell homogenate (CAMK2A) [%] | specific binding at CAMK2B (CAMK2B) | brain entry [2] | acute toxicity or sedation (rodents)
[3H]C1(O)C=C(C(=O)O)CC1 (centres unmarked) [^3H-A] | Significant specific binding levels | 87 | no specific binding |  | 
O=C([O-])C1=CC(O)CC1.[Na+] (centres unmarked) [sodium salt of A] |  |  |  | readily enters the brain | no apparent observations of acute toxicity or sedation
